Reference: ChEMBL document CHEMBL1201862, “PubChem BioAssay data set” (2004)
Activity calls are given as the source filed them.

Legend:
[1] = molecular target: T1, Carboxy-terminal domain RNA polymerase II polypeptide A small phosphatase 1 (Homo sapiens, UniProt Q9GZU7); assay: CTDSP1 inhibitors, concentration-response, biochemical, absorbance readout, ultra-high-throughput screen actives (AID 540297); format: functional
T1 sequence (Q9GZU7 whole entry): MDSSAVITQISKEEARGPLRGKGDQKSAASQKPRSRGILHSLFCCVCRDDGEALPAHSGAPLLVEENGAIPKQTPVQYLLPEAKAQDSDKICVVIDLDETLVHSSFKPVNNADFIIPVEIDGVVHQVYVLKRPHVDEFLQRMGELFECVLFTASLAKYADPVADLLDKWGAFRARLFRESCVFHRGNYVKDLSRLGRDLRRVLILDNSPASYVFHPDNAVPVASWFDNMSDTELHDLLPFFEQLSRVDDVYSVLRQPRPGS

Protein RecA = molecular target: T2, Protein RecA (Mycobacterium tuberculosis, UniProt P9WHJ3); assay: Fluorescence Cell-Free Homogeneous Dose Retest to Identify Inhibitors of RecA-Intein Splicing Activity. [Related pubchem assays (depositor defined):AID2097, AID2223, AID489010, AID492950]; format: functional
T2 sequence (P9WHJ3 whole entry): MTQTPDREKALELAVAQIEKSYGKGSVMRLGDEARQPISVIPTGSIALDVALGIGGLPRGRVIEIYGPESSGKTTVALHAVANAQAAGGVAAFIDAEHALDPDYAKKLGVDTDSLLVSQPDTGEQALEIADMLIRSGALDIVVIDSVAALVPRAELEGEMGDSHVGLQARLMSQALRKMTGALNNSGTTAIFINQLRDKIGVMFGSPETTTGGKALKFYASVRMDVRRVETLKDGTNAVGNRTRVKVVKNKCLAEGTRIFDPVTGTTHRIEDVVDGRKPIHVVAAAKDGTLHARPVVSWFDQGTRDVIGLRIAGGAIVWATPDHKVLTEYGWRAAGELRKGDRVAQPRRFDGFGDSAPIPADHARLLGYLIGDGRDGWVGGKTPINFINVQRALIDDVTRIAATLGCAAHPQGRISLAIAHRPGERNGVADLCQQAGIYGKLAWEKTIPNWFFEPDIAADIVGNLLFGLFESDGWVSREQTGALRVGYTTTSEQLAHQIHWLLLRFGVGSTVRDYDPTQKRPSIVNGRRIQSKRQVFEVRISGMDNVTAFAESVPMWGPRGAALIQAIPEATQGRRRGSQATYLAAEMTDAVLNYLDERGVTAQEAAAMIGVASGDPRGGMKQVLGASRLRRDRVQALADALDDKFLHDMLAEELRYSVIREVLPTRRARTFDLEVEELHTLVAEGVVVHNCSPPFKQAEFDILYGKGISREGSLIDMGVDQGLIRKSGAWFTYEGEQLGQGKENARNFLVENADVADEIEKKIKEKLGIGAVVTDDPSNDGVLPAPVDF

Genome polyprotein = Genome polyprotein (dengue virus type 2, UniProt P29990); assay: flavivirus cap methylation enzyme inhibition – biochemical, confirmation dose response, primary screen (AID 588689); format: functional
[2] = molecular target: T3, Replicative DNA helicase DnaB (Mycobacterium tuberculosis, UniProt P9WMR3); assay: DnaB intein splicing inhibitors, dose response, biochemical, cell-free fluorescence (AID 449749); format: functional
T3 sequence (P9WMR3 whole entry): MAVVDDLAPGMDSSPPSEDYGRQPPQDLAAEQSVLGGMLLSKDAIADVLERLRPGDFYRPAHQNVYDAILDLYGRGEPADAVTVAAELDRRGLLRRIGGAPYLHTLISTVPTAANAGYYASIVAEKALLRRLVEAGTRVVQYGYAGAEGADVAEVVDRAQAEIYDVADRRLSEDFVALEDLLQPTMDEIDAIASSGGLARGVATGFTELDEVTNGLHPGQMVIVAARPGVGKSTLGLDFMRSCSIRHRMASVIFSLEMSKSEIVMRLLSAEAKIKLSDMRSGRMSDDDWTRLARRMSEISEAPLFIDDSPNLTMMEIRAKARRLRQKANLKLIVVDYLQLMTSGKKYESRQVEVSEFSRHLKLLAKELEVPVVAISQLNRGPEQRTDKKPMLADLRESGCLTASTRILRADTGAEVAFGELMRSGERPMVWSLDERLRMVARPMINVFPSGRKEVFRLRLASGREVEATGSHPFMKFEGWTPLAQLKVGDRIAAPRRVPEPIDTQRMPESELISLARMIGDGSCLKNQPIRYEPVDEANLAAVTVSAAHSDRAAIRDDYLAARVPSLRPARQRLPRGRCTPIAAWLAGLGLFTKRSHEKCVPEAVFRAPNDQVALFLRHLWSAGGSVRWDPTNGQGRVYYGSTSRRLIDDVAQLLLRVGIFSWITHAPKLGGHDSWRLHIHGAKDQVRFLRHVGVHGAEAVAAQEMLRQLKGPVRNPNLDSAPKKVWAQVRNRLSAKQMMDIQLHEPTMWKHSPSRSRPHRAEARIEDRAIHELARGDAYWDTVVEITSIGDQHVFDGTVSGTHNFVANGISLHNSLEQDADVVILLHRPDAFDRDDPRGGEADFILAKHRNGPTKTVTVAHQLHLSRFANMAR

BJ [3] = assay: cells; format: functional, cell-based; conditions: Homo sapiens
BJ [4] = assay: BJ-TERT-LT-ST fibroblast viability loss – cell-based, RAS-independent, luminescence, dose response (AID 1935); format: functional; conditions: Homo sapiens;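 also: BJ fibroblasts immortalized with TERT plus LT and ST oncogenes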
[5] = DRD fibroblast viability loss – cell-based, non-viral oncogenic, luminescence, dose response (AID 1934); format: functional; conditions: Homo sapiens
BJ [6] = assay: BJ-TERT fibroblast viability loss – cell-based, RAS-independent, luminescence, dose response (AID 1933); format: functional; conditions: Homo sapiens
cells = format: functional
[7] = molecular target: Induced myeloid leukemia cell differentiation protein Mcl-1 (Homo sapiens, UniProt Q07820); format: functional
Leucine aminopeptidase = molecular target: T4, Leucine aminopeptidase (Plasmodium falciparum 3D7, UniProt Q8IL11); assay: P. falciparum M17LAP inhibitors, primary screen, biochemical, fluorogenic H-Leu-NHMec substrate, 1536-well (AID 1619); format: functional
T4 sequence (Q8IL11 whole entry): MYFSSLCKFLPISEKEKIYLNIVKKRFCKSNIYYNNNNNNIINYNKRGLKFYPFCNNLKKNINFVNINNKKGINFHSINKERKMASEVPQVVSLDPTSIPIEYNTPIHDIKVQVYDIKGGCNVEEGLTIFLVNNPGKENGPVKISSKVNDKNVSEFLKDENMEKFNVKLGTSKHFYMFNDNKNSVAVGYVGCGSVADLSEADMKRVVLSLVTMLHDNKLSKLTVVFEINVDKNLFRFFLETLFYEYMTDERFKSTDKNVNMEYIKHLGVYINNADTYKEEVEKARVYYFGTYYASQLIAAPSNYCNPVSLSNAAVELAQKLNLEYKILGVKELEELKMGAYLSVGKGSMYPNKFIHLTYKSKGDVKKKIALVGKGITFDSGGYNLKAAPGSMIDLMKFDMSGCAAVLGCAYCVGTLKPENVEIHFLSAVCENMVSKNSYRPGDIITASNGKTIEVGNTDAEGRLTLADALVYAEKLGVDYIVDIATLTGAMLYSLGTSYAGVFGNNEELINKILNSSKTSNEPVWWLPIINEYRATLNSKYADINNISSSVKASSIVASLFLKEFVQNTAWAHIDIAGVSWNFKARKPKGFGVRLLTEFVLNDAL

[8] = molecular target: T5, DNA repair protein RAD52 homolog (Homo sapiens, UniProt P43351); format: functional, biochemical
T5 sequence (P43351 whole entry): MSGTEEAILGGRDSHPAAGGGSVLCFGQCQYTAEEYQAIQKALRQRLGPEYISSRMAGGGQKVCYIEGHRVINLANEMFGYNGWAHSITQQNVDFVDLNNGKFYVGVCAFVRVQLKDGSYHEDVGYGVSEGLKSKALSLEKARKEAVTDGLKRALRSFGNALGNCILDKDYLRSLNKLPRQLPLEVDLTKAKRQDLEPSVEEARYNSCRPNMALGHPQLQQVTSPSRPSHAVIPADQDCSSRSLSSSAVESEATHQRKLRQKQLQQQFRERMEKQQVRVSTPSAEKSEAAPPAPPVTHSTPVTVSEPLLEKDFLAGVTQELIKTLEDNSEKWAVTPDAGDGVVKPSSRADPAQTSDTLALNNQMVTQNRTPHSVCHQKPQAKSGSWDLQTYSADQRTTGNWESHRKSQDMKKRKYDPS

Large T antigen = Large T antigen (Simian virus 40, UniProt P03070); format: functional, Betapolyomavirus macacae;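 also: Confirmatory-stage PubChem screen for compounds that inhibit SV40 T antigen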
[9] = molecular target: T6, Zinc finger protein mex-5 (Caenorhabditis elegans, UniProt Q9XUB2); assay: potency of MEX-5 RNA-binding blockers – biochemical, C. elegans, fluorescence polarization, dose response (AID 1960)
T6 sequence (Q9XUB2 whole entry): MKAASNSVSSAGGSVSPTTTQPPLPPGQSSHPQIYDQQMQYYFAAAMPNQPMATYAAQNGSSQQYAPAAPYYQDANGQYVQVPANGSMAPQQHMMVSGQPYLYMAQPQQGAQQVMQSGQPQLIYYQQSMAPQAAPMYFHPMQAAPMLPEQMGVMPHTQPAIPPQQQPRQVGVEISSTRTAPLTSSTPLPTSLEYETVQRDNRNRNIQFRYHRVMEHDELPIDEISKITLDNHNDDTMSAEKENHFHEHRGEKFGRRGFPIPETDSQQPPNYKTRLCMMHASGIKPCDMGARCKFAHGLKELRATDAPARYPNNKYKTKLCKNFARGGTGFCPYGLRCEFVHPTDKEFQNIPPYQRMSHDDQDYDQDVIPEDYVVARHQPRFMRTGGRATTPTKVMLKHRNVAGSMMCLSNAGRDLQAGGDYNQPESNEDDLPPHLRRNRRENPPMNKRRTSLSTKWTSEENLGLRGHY

[10] = molecular target: T7, RNA-binding protein pos-1 (Caenorhabditis elegans, UniProt G5EF15); assay: disruptors of C. elegans POS-1 RNA interaction – biochemical, fluorescence polarization, dose response (AID 1964);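 also: purified POS-1 fused to maltose binding protein made in E. coli; potency of compounds blocking POS-1 binding to fluorescent RNA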
T7 sequence (G5EF15 whole entry): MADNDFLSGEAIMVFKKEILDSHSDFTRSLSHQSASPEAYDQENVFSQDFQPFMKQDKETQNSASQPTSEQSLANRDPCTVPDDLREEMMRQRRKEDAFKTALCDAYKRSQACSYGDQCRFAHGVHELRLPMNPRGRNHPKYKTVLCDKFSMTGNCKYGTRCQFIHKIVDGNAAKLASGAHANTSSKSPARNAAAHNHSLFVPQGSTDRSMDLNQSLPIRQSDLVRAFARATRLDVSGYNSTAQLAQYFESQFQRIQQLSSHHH

[11] = molecular target: T8, Polyadenylate-binding protein 1 (Homo sapiens, UniProt P11940); assay: MLLE domain peptide-binding blockers, IC50 – biochemical, fluorescence polarization, FITC-PAM2 peptide, dose response (AID 602259); format: functional; conditions: read-out: IC50_Mean
[12] = molecular target: T8, Polyadenylate-binding protein 1; assay: MLLE binding blockers, Cy5 peptide tracer – biochemical, fluorescence polarization, Cy5-PAM2 peptide, secondary, miRNA deadenylation inhibitor project, dose response (AID 602260); format: functional; conditions: read-out: IC50_Mean
[13] = molecular target: T9, Ubiquitin-conjugating enzyme E2 N (Homo sapiens, UniProt P61088); format: functional;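 also: Dose-response confirmation in a TR-FRET assay detecting UBC13-driven polyubiquitin chain formation, inhibition measured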
T9 sequence (P61088 whole entry): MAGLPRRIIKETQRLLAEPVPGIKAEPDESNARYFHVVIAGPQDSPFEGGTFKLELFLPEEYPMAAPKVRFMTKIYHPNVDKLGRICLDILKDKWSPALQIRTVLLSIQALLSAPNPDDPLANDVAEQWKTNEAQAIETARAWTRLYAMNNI

Large T antigen, sequence (P03070 whole entry): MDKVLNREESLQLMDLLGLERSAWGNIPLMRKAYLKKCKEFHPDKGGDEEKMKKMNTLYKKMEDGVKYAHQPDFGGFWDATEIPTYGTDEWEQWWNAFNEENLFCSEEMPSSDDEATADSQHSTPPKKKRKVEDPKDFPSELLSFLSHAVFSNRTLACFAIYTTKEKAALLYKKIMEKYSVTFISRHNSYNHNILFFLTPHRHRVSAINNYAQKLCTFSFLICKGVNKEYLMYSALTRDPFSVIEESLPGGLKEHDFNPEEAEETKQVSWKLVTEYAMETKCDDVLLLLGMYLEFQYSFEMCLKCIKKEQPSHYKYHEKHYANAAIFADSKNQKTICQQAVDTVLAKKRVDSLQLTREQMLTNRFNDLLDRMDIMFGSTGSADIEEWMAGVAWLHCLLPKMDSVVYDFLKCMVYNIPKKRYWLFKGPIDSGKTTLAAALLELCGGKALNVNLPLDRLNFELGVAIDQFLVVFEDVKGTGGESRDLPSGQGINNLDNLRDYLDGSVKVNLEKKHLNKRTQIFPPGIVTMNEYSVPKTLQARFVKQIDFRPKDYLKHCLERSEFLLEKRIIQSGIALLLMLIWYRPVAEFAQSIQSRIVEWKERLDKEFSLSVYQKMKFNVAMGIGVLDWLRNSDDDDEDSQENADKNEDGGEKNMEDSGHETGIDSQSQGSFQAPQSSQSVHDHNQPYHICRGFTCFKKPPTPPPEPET
Genome polyprotein, sequence (P29990 2492-3391 limits assumed): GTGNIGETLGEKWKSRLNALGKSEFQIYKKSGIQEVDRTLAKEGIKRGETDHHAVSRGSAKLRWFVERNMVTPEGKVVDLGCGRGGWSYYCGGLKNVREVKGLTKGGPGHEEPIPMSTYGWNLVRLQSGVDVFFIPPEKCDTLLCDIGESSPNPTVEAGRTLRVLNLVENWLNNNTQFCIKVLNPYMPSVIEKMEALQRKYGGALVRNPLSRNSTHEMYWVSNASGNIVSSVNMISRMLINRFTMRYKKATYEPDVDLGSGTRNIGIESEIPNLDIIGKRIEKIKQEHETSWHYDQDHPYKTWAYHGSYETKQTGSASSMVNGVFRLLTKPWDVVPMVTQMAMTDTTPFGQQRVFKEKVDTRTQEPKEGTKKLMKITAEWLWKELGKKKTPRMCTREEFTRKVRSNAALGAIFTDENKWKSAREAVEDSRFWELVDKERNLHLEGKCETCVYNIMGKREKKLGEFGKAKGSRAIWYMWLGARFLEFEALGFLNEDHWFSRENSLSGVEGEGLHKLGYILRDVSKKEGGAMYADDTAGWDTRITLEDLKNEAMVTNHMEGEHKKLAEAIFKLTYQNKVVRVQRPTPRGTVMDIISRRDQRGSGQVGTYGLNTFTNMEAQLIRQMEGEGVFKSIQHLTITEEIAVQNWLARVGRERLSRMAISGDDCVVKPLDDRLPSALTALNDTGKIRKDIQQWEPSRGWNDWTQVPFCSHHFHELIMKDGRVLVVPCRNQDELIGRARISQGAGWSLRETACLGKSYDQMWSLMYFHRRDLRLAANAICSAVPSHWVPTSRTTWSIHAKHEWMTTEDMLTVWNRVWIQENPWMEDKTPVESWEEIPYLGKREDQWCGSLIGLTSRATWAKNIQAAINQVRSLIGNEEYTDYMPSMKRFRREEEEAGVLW
T8 sequence (P11940 whole entry, the tested form may be a part): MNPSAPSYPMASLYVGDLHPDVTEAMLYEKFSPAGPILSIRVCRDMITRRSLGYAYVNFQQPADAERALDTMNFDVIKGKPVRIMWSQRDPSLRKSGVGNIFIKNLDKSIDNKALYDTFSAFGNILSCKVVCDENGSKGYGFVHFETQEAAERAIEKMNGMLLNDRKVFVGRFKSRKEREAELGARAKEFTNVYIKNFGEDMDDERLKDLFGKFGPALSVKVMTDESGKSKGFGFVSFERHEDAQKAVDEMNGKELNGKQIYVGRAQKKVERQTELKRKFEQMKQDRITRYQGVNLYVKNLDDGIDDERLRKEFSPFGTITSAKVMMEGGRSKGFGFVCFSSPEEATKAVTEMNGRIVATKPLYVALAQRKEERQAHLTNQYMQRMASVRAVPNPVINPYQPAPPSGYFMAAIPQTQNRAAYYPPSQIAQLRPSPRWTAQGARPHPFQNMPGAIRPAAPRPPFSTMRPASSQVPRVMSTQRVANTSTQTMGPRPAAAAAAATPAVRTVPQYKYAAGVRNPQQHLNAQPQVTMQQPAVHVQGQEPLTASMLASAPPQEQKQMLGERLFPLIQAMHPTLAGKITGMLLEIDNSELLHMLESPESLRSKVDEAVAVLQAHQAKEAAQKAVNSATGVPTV
Induced myeloid leukemia cell differentiation protein Mcl-1, sequence (Q07820 whole entry): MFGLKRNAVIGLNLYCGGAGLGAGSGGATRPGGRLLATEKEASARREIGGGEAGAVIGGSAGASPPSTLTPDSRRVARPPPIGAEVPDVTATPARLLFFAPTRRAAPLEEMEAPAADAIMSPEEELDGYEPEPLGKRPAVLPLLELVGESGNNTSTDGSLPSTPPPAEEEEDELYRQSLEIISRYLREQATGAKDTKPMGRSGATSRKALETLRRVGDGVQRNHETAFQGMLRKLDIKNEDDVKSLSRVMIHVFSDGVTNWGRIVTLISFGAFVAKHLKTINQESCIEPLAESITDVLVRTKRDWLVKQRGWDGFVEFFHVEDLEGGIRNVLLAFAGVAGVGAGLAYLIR

COc1ccccc1NC(=O)CSc1sc2c(O)cc(=O)[nH]c2c1C#N
IC50 [1]: 6.42 µM (active)

CCc1ccc(N2C(=O)C(Cl)=C(N3CCOCC3)C2=O)cc1
EC50 (Protein RecA): 0.34 µM (active) | IC50 (Genome polyprotein): 45.1 µM (active) | AC50 [2]: 6.99 µM (active)

CCOc1ccccc1CNS(=O)(=O)c1ccc(-c2cnc(C3CC3)o2)cc1
EC50 (BJ [3]): 46.3 µM (active) | EC50 (BJ [4]): 0.703 µM (inconclusive) | EC50 [5]: 19.7 µM (inconclusive) | EC50 (BJ [6]): 0.535 µM (inconclusive)

COc1ccc(N2C(=O)NC(=O)/C(=C\c3ccccc3[N+](=O)[O-])C2=O)cc1
IC50 (Genome polyprotein): 32 µM (active)

CC1(C)OC(c2ccccc2)=C/C(=C\C=N\NC(=O)c2ccncc2)O1
IC50 (cells): 1.06 µM (active)

CC[C@H](C)NC(=O)c1ccc(Cn2c(=S)[nH]c3c([nH]c4ccc(OC)cc43)c2=O)cc1
IC50 [1]: 4.67 µM (active) | IC50 [7]: 5.25 µM (active)

COc1cc(C(=O)Nc2ccc3ccccc3c2)cc(OC)c1OC
EC50 (BJ [3]): > 150 µM (not active) | EC50 (BJ [4]): 1.44 µM (active) | EC50 [5]: 1.33 µM (active) | EC50 (BJ [6]): 3.2 µM (active)

Cc1ccc(-c2[nH]nc3c2C(c2cccnc2)C(C#N)=C(N)O3)cc1 (stereo not given)
EC50 (Protein RecA): 1.3 µM (active) | IC50 (Leucine aminopeptidase): 25.8 µM (active) | AC50 [2]: 5.17 µM (active)

Nc1ccc2[nH]c(CCCO)nc2c1
AC50 [8]: 8.48 µM (active) | IC50 (Large T antigen): 21.2 µM (active) | EC50 [9]: 4.35 µM (inconclusive) | EC50 [10]: 36.7 µM (active)

O=C(Cn1c(=O)oc2cc(S(=O)(=O)N3CCCCCC3)ccc21)NC1CCCCCCC1
IC50 [1]: 9.64 µM (active)

CN(C)c1ccc(C=C2C(=O)NC(=S)NC2=O)cc1[N+](=O)[O-]
IC50 (Large T antigen): 73.7 µM (active) | IC50 (Leucine aminopeptidase): 76.6 µM (active) | IC50 (Genome polyprotein): 12.8 µM (active) | IC50 [11]: > 66 µM (inactive) | IC50 [12]: > 66 µM (inactive)

CCOc1ccc(/C=N/OCC(=O)Nc2ccc3c(c2)OCO3)cc1
IC50 (cells): 18.1 µM (active)

CCC(=O)N1CCN(c2cc3c(cc2F)c(=O)c(C(=O)O)cn3CC)CC1
IC50 (cells): 6.76 µM (active)

CCC(C)[C@H](N)c1cn([C@@H](Cc2cc3ccccc3[nH]2)C(=O)N2CCNCC2)nn1 (stereo not given in full)
AC50 [8]: 8.23 µM (active) | IC50 [13]: > 20 µM (inactive)

COc1cc(/C=C2\C(=N)N3N=C(S(C)(=O)=O)SC3=NC2=O)ccc1OS(=O)(=O)c1ccc(C)cc1
IC50 (Large T antigen): 64.6 µM (active) | IC50 [1]: 3.81 µM (active)
